In experiment [1] the test system is Velvetleaf. Put plainly: Preemergence herbicidal activity, velvetleaf. Type of experiment: in vivo. To be noted: Abutilon theophrasti, pre-emergence, 0.3 kg/ha, after 17-21 days, read-out: Preemergence herbicidal activity (% control), Velvetleaf. Summed up: (§1)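 Greenhouse flat test; compound sprayed in aqueous acetone with sorbitan monolaurate at 1000 L/ha. Percent control assessed at 17-21 days.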

In experiment [2] the test system is Blackgrass. Put plainly: Preemergence herbicidal activity, blackgrass. Format: in vivo, Aloepecurus myosuroides. The following applies: Alopecurus myosuroides, pre-emergence, 0.3 kg/ha, after 17-21 days, read-out: Preemergence herbicidal activity (% control), Blackgrass. In a few lines:
as §1

Experiment [3] deals with Soybean. Put plainly: Postemergence herbicidal activity, soybean. Type of experiment: in vivo, Glycine max var. Williams. To be noted: Glycine max, post-emergence, 0.3 kg/ha, after 17-21 days, read-out: Postemergence herbicidal activity (% control), Soybean. In a few lines:
as §1

For experiment [4], the system named is Chickweed. The experiment in a line: Postemergence herbicidal activity, chickweed. Type of experiment: in vivo. To be noted: Stellaria media, post-emergence, 0.3 kg/ha, after 17-21 days, read-out: Postemergence herbicidal activity (% control), Chickweed. In a few lines:
as §1

In experiment [5] the test system is Morningglory. The experiment in a line: Preemergence herbicidal activity, morningglory. Type of experiment: in vivo, Ipomea lacunosa or Ipomea hederacea. The following applies: Ipomoea, pre-emergence, 0.3 kg/ha, after 17-21 days, read-out: Preemergence herbicidal activity (% control), Morningglory. Summed up:
as §1

Experiment [6] has as its system Cocklebur. The experiment in a line: Preemergence herbicidal activity, cocklebur. Format: in vivo, Xanthium pensylvanicum. The following applies: Xanthium strumarium, pre-emergence, 0.3 kg/ha, after 17-21 days, read-out: Preemergence herbicidal activity (% control), Cocklebur. Summed up: as §1
Experiment [7] has as its system Corn. The experiment in a line: Postemergence herbicidal activity, corn. Type of experiment: in vivo, Zea mays var. Agway 425X. The following applies: Zea mays, post-emergence, 0.3 kg/ha, after 17-21 days, read-out: Postemergence herbicidal activity (% control), Corn. In a few lines:
as §1

Experiment [8] has as its system Green foxtail. The experiment in a line: Postemergence herbicidal activity, green foxtail. Type of experiment: in vivo. The following applies: Setaria viridis, post-emergence, 0.3 kg/ha, after 17-21 days, read-out: Postemergence herbicidal activity (% control), Green foxtail. Summed up: as §1
Experiment [9] has as its system Corn. The experiment in a line: Preemergence herbicidal activity, corn. Format: in vivo, Zea mays var. Agway 425X. The following applies: Zea mays, pre-emergence, 0.3 kg/ha, after 17-21 days, read-out: Preemergence herbicidal activity (% control), Corn. Summed up:
as §1

In experiment [10] the test system is Morningglory. Put plainly: Postemergence herbicidal activity, morningglory. The following applies: Ipomoea, post-emergence, 0.3 kg/ha, after 17-21 days, read-out: Postemergence herbicidal activity (% control), Morningglory. Format: in vivo, Ipomea lacunosa or Ipomea hederacea. In a few lines:
as §1

Experiment [11] relates to Soybean. The experiment in a line: Preemergence herbicidal activity, soybean. Type of experiment: in vivo, Glycine max var. Williams. The following applies: Glycine max, pre-emergence, 0.3 kg/ha, after 17-21 days, read-out: Preemergence herbicidal activity (% control), Soybean. In a few lines: as §1
In experiment [12] the test system is Cocklebur. Put plainly: Postemergence herbicidal activity, cocklebur. The following applies: Xanthium strumarium, post-emergence, 0.3 kg/ha, after 17-21 days, read-out: Postemergence herbicidal activity (% control), Cocklebur. Type of experiment: in vivo, Xanthium pensylvanicum. Summed up:
as §1

In experiment [13] the test system is Wheat. Put plainly: Postemergence herbicidal activity, wheat. Type of experiment: in vivo, Triticum aestivum var. Wheaton. To be noted: Triticum aestivum, post-emergence, 0.3 kg/ha, after 17-21 days, read-out: Postemergence herbicidal activity (% control), Wheat. Summed up: as §1
For experiment [14], the system named is Wheat. Put plainly: Preemergence herbicidal activity, wheat. Type of experiment: in vivo, Triticum aestivum var. Wheaton. To be noted: Triticum aestivum, pre-emergence, 0.3 kg/ha, after 17-21 days, read-out: Preemergence herbicidal activity (% control), Wheat. In a few lines:
as §1

Experiment [15] relates to Johnsongrass. Put plainly: Postemergence herbicidal activity, johnsongrass. Format: in vivo. To be noted: Sorghum halepense, post-emergence, 0.3 kg/ha, after 17-21 days, read-out: Postemergence herbicidal activity (% control), Johnsongrass. In a few lines: as §1
The subject of experiment [16] is Johnsongrass. Put plainly: Preemergence herbicidal activity, johnsongrass. Type of experiment: in vivo. To be noted: Sorghum halepense, pre-emergence, 0.3 kg/ha, after 17-21 days, read-out: Preemergence herbicidal activity (% control), Johnsongrass. In a few lines:
as §1

Experiment [17] relates to Blackgrass. Put plainly: Postemergence herbicidal activity, blackgrass. To be noted: Alopecurus myosuroides, post-emergence, 0.3 kg/ha, after 17-21 days, read-out: Postemergence herbicidal activity (% control), Blackgrass. Type of experiment: in vivo, Aloepecurus myosuroides. Summed up: as §1
Experiment [18] concerns Green foxtail. Put plainly: Preemergence herbicidal activity, green foxtail. Format: in vivo. The following applies: Setaria viridis, pre-emergence, 0.3 kg/ha, after 17-21 days, read-out: Preemergence herbicidal activity (% control), Green foxtail. Summed up:
as §1

For experiment [19], the system named is Velvetleaf. The experiment in a line: Postemergence herbicidal activity, velvetleaf. The following applies: Abutilon theophrasti, post-emergence, 0.3 kg/ha, after 17-21 days, read-out: Postemergence herbicidal activity (% control), Velvetleaf. Format: in vivo. In a few lines:
as §1

The test system of experiment [20] is Chickweed. Put plainly: Preemergence herbicidal activity, chickweed. Type of experiment: in vivo. To be noted: Stellaria media, pre-emergence, 0.3 kg/ha, after 17-21 days, read-out: Preemergence herbicidal activity (% control), Chickweed. Summed up: as §1

Turning to `COc1ccccc1COc1ccc(-n2c(=O)cc(C(F)(F)F)n(C)c2=O)cc1` [Compound 40], the activity at 300 g/ha with Velvetleaf [1] worked out at 100%; with Blackgrass [2], 30%; in the experiment on Soybean [3], 90%; in the experiment on Chickweed [4], 15%; in the experiment on Morningglory [5], 100%; in the experiment with Cocklebur [6], 20%. The activity at 300 g/ha in the experiment with Corn [7] worked out at 50%; in the experiment with Green foxtail [8] it was 100%; in the experiment on Corn [9] it was 75%; in the experiment with Morningglory [10], 90%; in the experiment with Soybean [11], 50%; in the experiment with Cocklebur [12], 100%. Besides, the activity at 300 g/ha turned out to be 20% in the experiment on Wheat [13]; 20% in the experiment on Wheat [14]; 90% in the experiment with Johnsongrass [15]; 100% in the experiment on Johnsongrass [16]; 10% with Blackgrass [17]; 100% with Green foxtail [18]. In addition, the activity at 300 g/ha in the experiment on Velvetleaf [19] came to 100%; in the experiment with Chickweed [20] it was 80%.

For `Cn1c(C(F)(F)F)cc(=O)n(-c2ccc(OCc3ccc(Cl)c(Cl)c3)cc2)c1=O` [Compound 41], the activity at 300 g/ha with Velvetleaf [1] was 100%; with Blackgrass [2], 20%; in the experiment with Soybean [3], 85%; in the experiment with Chickweed [4] it was 85%; in the experiment with Morningglory [5] it was 80%; in the experiment with Cocklebur [6], 20%. For the same compound, the activity at 300 g/ha with Corn [7] was 25%; in the experiment on Green foxtail [8], 45%; in the experiment on Corn [9], 0%; in the experiment on Morningglory [10], 100%; in the experiment with Soybean [11], 40%; in the experiment with Cocklebur [12], 100%. The activity at 300 g/ha with Wheat [13] amounted to 0%; in the experiment on Wheat [14] it was 0%; in the experiment with Johnsongrass [15], 35%; with Johnsongrass [16], 20%; with Blackgrass [17], 0%; in the experiment with Green foxtail [18] it was 95%. In addition, the activity at 300 g/ha was 100% in the experiment on Velvetleaf [19] and 95% in the experiment on Chickweed [20].

For the compound `Cn1c(C(F)(F)F)cc(=O)n(-c2ccc(OCc3cc(Cl)cc(Cl)c3)cc2)c1=O` [Compound 43], the activity at 300 g/ha in the experiment on Velvetleaf [1] was determined as 0%; with Blackgrass [2] it was 0%; with Soybean [3], 10%; with Chickweed [4] it was 0%; with Morningglory [5], 0%; in the experiment on Cocklebur [6] it was 0%. The activity at 300 g/ha amounted to 30% in the experiment with Corn [7]; 0% in the experiment on Green foxtail [8]; 0% in the experiment with Corn [9]; 10% in the experiment with Morningglory [10]; 0% in the experiment on Soybean [11]; 0% with Cocklebur [12]. Further, the activity at 300 g/ha amounted to 0% with Wheat [13]; 0% with Wheat [14]; 30% with Johnsongrass [15]; 0% in the experiment on Johnsongrass [16]; 0% in the experiment with Blackgrass [17]; 0% with Green foxtail [18]. Moreover, the activity at 300 g/ha with Velvetleaf [19] and in the experiment with Chickweed [20] was 0% each time.

Turning to `COc1ccc(COc2ccc(-n3c(=O)cc(C(F)(F)F)n(C)c3=O)cc2)cc1` [Compound 44], the activity at 300 g/ha in the experiment on Velvetleaf [1] was determined as 100%; in the experiment on Blackgrass [2], 20%; with Soybean [3], 40%; with Chickweed [4], 20%; in the experiment on Morningglory [5], 100%; in the experiment with Cocklebur [6], 25%. In addition, the activity at 300 g/ha in the experiment with Corn [7] turned out to be 30%; in the experiment on Green foxtail [8], 70%; in the experiment with Corn [9], 0%; in the experiment on Morningglory [10], 90%; in the experiment on Soybean [11], 40%; in the experiment with Cocklebur [12] it was 50%. The activity at 300 g/ha amounted to 10% with Wheat [13]; 10% with Wheat [14]; 50% in the experiment on Johnsongrass [15]; 10% in the experiment on Johnsongrass [16]; 50% in the experiment with Blackgrass [17]; 60% with Green foxtail [18]. Also, the activity at 300 g/ha in the experiment on Velvetleaf [19] worked out at 40%; in the experiment with Chickweed [20] it was 20%.

The values above are taken from US5399543A, “3-[4-(phenylmethoxy)phenyl]-1-substituted-6-haloalkyl-uracil herbicides” (FMC Corporation, priority 1993, dated 1995).
